Measured values published in patent US20090143279A1 (priority 2007, published 2009).
Like-named read-outs stand apart in the source and are kept apart here.

Tests used:
[1] = test system: mitochondrial membrane potential; format: cell-based, mouse
[2] = test system: reactive oxygen species; format: cell-based, mouse
[3] = test system: OXPHOS gene expression; format: cell-based, mouse
[4] = test system: nuOXPHOS transcripts; format: cell-based, mouse
[5] = test system: mtOXPHOS transcripts; format: cell-based, mouse
[6] = test system: cytochrome c; format: cell-based, mouse
[7] = test system: C2C12 myotubes
[8] = test system: cellular dehydrogenase activity
[9] = composite Z-score vs DMSO, Conc 20 μM
[10] = composite Z-score vs DMSO wells, Conc 20 μM
[11] = normalized composite Z-score vs mock-treated (DMSO) wells, Conc 20 μM
[12] = composite Z-score vs mock-treated (DMSO) wells, Conc 20 μM
[13] = Conc 20 μM, normalized score vs mock-treated (DMSO) wells
[14] = 20 μM, composite Z-score vs DMSO

cytochrome c, sequence (P62897 whole entry): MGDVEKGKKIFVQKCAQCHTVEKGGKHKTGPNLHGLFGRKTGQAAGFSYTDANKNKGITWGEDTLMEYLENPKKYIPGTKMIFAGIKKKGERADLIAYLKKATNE

Molecule: CC[C@H]1OC(=O)[C@H](C)[C@@H](O[C@H]2C[C@@](C)(OC)[C@@H](O)[C@H](C)O2)[C@H](C)[C@@H](O[C@@H]2O[C@H](C)C[C@H](N(C)C)[C@H]2O)[C@](C)(OC)C[C@@H](C)C(=O)[C@H](C)[C@@H](O)[C@]1(C)O [clarithromycin]
- ΔΨm [1, 9]: 0.434
- ROS [2, 9]: 0.293
- GE-HTS [3, 9]: −2.161
- nucOX [4, 9]: −2.046
- mitoOX [5, 9]: −1.928
- cyt c [6, 9]: −1.095
- Viability [7, 9]: −0.763
- MTT [8, 9]: −1.086

Molecule: O=C(O)CN(CC(=O)O)Cc1cc2c(cc1O)Oc1cc(O)c(CN(CC(=O)O)CC(=O)O)cc1C21OC(=O)c2ccccc21 [calcein]
- ΔΨm [1, 10]: −3.437
- ROS [2, 10]: 11.668
- GE-HTS [3, 10]: −0.625
- nucOX [4, 10]: −0.468
- mitoOX [5, 10]: −0.829
- cyt c [6, 10]: 0.465
- Viability [7, 10]: 5.567
- MTT [8, 10]: −0.243

Molecule: Cc1onc(-c2ccccc2)c1C(=O)N[C@@H]1C(=O)N2[C@@H]1SC(C)(C)[C@@H]2C(=O)[O-].[Na+] [oxacillin sodium]
- ΔΨm [1, 9]: −0.432
- ROS [2, 9]: 0.572
- GE-HTS [3, 9]: −0.790
- nucOX [4, 9]: −0.629
- mitoOX [5, 9]: −0.881
- cyt c [6, 9]: −0.361
- Viability [7, 9]: −1.101
- MTT [8, 9]: −1.064

Molecule: Cn1c(=O)[nH]c(=O)c2[nH]cnc21 [3-methylxanthine]
- ΔΨm [1, 9]: −0.149
- ROS [2, 9]: 0.472
- GE-HTS [3, 9]: −1.241
- nucOX [4, 9]: −1.286
- mitoOX [5, 9]: −0.856
- cyt c [6, 9]: 0.692
- Viability [7, 9]: 0.036
- MTT [8, 9]: −0.859

Molecule: CC(C)CCC[C@@H](C)[C@H]1CC[C@H]2[C@@H]3CC(=O)[C@H]4C[C@@H](O)CC[C@]4(C)[C@H]3CC[C@]12C [5alpha-cholestan-3beta-ol-6-one]
- ΔΨm [1, 9]: 0.479
- ROS [2, 9]: 0.397
- GE-HTS [3, 9]: −0.731
- nucOX [4, 9]: −0.603
- mitoOX [5, 9]: −0.862
- cyt c [6, 9]: 1.006
- Viability [7, 9]: −0.430
- MTT [8, 9]: 0.811

Molecule: Oc1c(Cl)cc(Cl)c(Cl)c1Cc1c(O)c(Cl)cc(Cl)c1Cl [hexachlorophene]
- ΔΨm [1, 10]: −2.559
- ROS [2, 10]: −3.378
- GE-HTS [3, 10]: −2.471
- nucOX [4, 10]: −1.371
- mitoOX [5, 10]: −4.169
- cyt c [6, 10]: −2.828
- Viability [7, 10]: −3.480
- MTT [8, 10]: −1.203

Molecule: CC1=C(CCC(=O)O)c2cc3[nH]c(cc4nc(cc5[nH]c(cc1n2)c(C)c5C(C)O)C(C)=C4C(C)O)c(C)c3CCC(=O)O (stereo not shown) [haematoporphyrin]
- ΔΨm [1, 9]: −3.662
- ROS [2, 9]: 1.666
- GE-HTS [3, 9]: 0.309
- nucOX [4, 9]: 0.251
- mitoOX [5, 9]: 0.416
- cyt c [6, 9]: 0.324
- Viability [7, 9]: −1.933
- MTT [8, 9]: −3.312

Molecule: C=C1C(N)CC2CC1C2(C)C (stereo not drawn) [3-amino-beta-pinene]
- ΔΨm [1, 11]: −0.519
- ROS [2, 11]: 0.421
- GE-HTS [3, 11]: −1.376
- nucOX [4, 11]: −1.341
- mitoOX [5, 11]: −1.138
- cyt c [6, 11]: 0.460
- Viability [7, 11]: −0.108
- MTT [8, 11]: −0.906

Molecule: 3-deoxo-3beta-hydroxymexicanolide 16-enol ether
- ΔΨm [1, 12]: −0.059
- ROS [2, 12]: 1.279
- GE-HTS [3, 12]: −0.203
- nucOX [4, 12]: −0.247
- mitoOX [5, 12]: −0.133
- cyt c [6, 12]: −0.040
- Viability [7, 12]: 0.290
- MTT [8, 12]: −1.922

Molecule: C[C@@H]1CC[C@@]2(OC1)O[C@H]1C[C@H]3[C@@H]4CC[C@H]5C[C@@H](O)CC[C@]5(C)C4=CC[C@]3(C)[C@H]1[C@@H]2C [hydroxy (3beta)isoallospirost-9 (11)-ene]
- ΔΨm [1, 11]: −0.423
- ROS [2, 11]: 0.244
- GE-HTS [3, 11]: −0.457
- nucOX [4, 11]: −0.619
- mitoOX [5, 11]: −0.081
- cyt c [6, 11]: −0.048
- Viability [7, 11]: 0.035
- MTT [8, 11]: −1.944

Molecule: CCOc1ccc(C(=O)c2ccc(O)c(O)c2O)cc1 [2,3,4-trihydroxy-4′-ethoxybenzophenone]
- ΔΨm (composite Z-score) [1, 13]: −1.185
- ROS (composite Z-score) [2, 13]: 0.052
- GE-HTS (composite Z-score) [3, 13]: −0.823
- nucOX (composite Z-score) [4, 13]: −0.896
- mitoOX (composite Z-score) [5, 13]: −0.478
- cyt c (composite Z-score) [6, 13]: 0.440
- Viability (composite Z-score) [7, 13]: −0.413
- MTT (composite Z-score) [8, 13]: −2.368

Molecule: COc1cc2c(cc1OC)-c1c(oc3c4c(ccc3c1=O)OC(C(C)C)C4)CO2 (stereo not shown) [dehydrodihydrorotenone, reference compound]
- ΔΨm [1, 12]: 0.125
- ROS [2, 12]: 0.051
- GE-HTS [3, 12]: −0.001
- nucOX [4, 12]: −0.290
- mitoOX [5, 12]: 0.535
- cyt c [6, 12]: −0.211
- Viability [7, 12]: −0.172
- MTT [8, 12]: −3.034

Molecule: CN1Cc2c(N)cccc2C(c2ccccc2)C1 (stereo not shown) [nomifensin]
- ΔΨm [1]: −0.329
- ΔΨm [1, 14]: −0.059
- ROS [2]: 3.133
- ROS [2, 14]: 3.112
- GE-HTS [3]: −0.331
- GE-HTS [3, 14]: −0.131
- nucOX [4]: −0.571
- nucOX [4, 14]: −0.169
- mitoOX [5]: 0.181
- mitoOX [5, 14]: −0.026
- cyt c [6]: −1.298
- cyt c [6, 14]: −1.233
- Viability [7]: 0.121
- Viability [7, 14]: 0.525
- MTT [8]: −0.534
- MTT [8, 14]: −0.885

Molecule: C=C1C[C@]23C[C@@]1(O)CC[C@H]2[C@@]12C=C[C@H](O)[C@@](C)(C(=O)O1)[C@H]2[C@@H]3C(=O)O [gibberellic acid]
- ΔΨm [1]: 2.622
- ΔΨm [1, 12]: −0.439
- ROS [2]: 0.246
- ROS [2, 12]: 0.512
- GE-HTS [3]: 0.021
- GE-HTS [3, 12]: −0.014
- nucOX [4]: 0.066
- nucOX [4, 12]: 0.077
- mitoOX [5]: −0.090
- mitoOX [5, 12]: −0.264
- cyt c [6]: 0.714
- cyt c [6, 12]: 0.031
- Viability [7]: −0.171
- Viability [7, 12]: −0.081
- MTT [8]: −0.432
- MTT [8, 12]: 0.661

Molecule: CN[C@@H]1[C@@H](O[C@H]2O[C@H](CO)[C@@H](N)[C@H](O)[C@H]2O)OC2C[C@@H](N)[C@@H](O[C@H]3[C@H](O)[C@@H](O)[C@H](N)C[C@@H]3N)OC2[C@@H]1O (stereo partly shown) [apramycin]
- ΔΨm [1, 9]: −0.407
- ROS [2, 9]: −0.105
- GE-HTS [3, 9]: 0.477
- nucOX [4, 9]: 0.413
- mitoOX [5, 9]: 0.494
- cyt c [6, 9]: 0.223
- Viability [7, 9]: −1.979
- MTT [8, 9]: −0.808

Molecule: C[C@H](CCC(=O)O)[C@H]1CC[C@H]2[C@@H]3CCC4CCCC[C@]4(C)[C@H]3C=C[C@]12C (stereo partly shown) [chol-11-enic acid]
- ΔΨm [1, 11]: −0.652
- ROS [2, 11]: 0.737
- GE-HTS [3, 11]: −0.069
- nucOX [4, 11]: −0.195
- mitoOX [5, 11]: 0.246
- cyt c [6, 11]: 0.383
- Viability [7, 11]: −0.456
- MTT [8, 11]: −1.164

Molecule: CC(C)c1c(O)ccc2c1CCC1[C@@](C)(C=O)CCC[C@]21C (stereo partly shown) [totaralolal]
- ΔΨm [1, 12]: 0.460
- ROS [2, 12]: 1.617
- GE-HTS [3, 12]: −0.700
- nucOX [4, 12]: −0.401
- mitoOX [5, 12]: −1.230
- cyt c [6, 12]: −0.226
- Viability [7, 12]: 0.591
- MTT [8, 12]: 1.526

Molecule: CO/N=C(\C(=O)N[C@@H]1C(=O)N2C(C(=O)OCOC(=O)C(C)(C)C)=C(/C=C\c3scnc3C)CS[C@H]12)c1csc(N)n1 [cefditorin pivoxil]
- ΔΨm [1, 9]: 0.245
- ROS [2, 9]: 0.426
- GE-HTS [3, 9]: 0.238
- nucOX [4, 9]: 0.100
- mitoOX [5, 9]: 0.440
- cyt c [6, 9]: 0.200
- Viability [7, 9]: −0.219
- MTT [8, 9]: −0.718
